Data as given in patent publication US5597715A, “7,42-Bis(O-demethyl)rapamycin” (SmithKline Beecham p.l.c., priority 1993, dated 1997).

Test system: Spleen cells
Assay: Mitogenesis Assay for Immunosuppressive Activity (Concanavalin A, 3H-thymidine)
Assay type: cell-based, BDF1 female mice
Details: Mus musculus; Concanavalin A 5 μg/ml, 72 hours, 3H-thymidine last 18 hours
Procedure: Spleen cells for BDF1 female mice were established in RPMI with 10% fetal calf serum at 5×10^6 /mL. One hundred […] of this suspension (5×10^5 cells) were dispensed into 96-well round-bottomed microtiter plates (Linbro, Flow Laboratories). Concanavalin A (5 μg/ml) was added as the mitogenic stimulus, and the final volume in the microtiter wells was adjusted to 200 μL with RPMI. Cell cultures were incubated for 72 hours at 37° C. in a 5% CO2 atmosphere and pulsed with 0,5 μCi ^3 H-thymidine (specific activity […]) for the last 18 hours of the 72 hours culture. The cells were harvested on an automated multiple sample harvester and cell-associated radioactivity counted in a Beckman liquid scintillation counter. The results were expressed as the mean values derived from quadruplicate measurements. Cell viability was determined by trypan blue exclusion after 72 hours of incubation. Compounds to be tested were added to the microtiter plates at the appropriate dilutions prior to the addition of cells.

Compound `COC1C(=O)C(C)CC(C)C=CC=CC=C(C)C(O)CC2CCC(C)C(O)(O2)C(=O)C(=O)N2CCCCC2C(=O)OC(C(C)CC2CCC(O)C(O)C2)CC(=O)C(C)C=C(C)C1O` (stereo not shown) [7,42-Bis(O-demethyl)rapamycin] has an IC50 of 10 to 130 nM.
